The experiment has as its system GFP-labeled P. aeruginosa PAO1-L biofilms. The experiment is described as follows: Biofilm viability assay, method 2 (tobramycin, GFP-labeled biofilm, PI). The class given is cell-based, Pseudomonas aeruginosa. As for the experimental part: Biofilms of PAO1-L were also tested for the impact of 6f on the potentiation of tobramycin activity (method 2).
Figure 7 Effect of 6f and tobramycin on GFP-labeled P. aeruginosa PAO1-L biofilms. (A) Representative CLSM images: (a) Untreated biofilm; (b) biofilm grown with 6f at 1 μM for 16 h; (c) biofilm treated with 100 μg/mL tobramycin for 2 or 6 h after 16 h of growth; (d) biofilm grown with 1 μM 6f and treated with (6f 1 μM), tobramycin (100 μg/mL) for 2 or 6 h after 16 h of growth. Dead cells and extracellular DNA were stained red with propidium iodide (PI). Three-dimensional (3D) sections and cross sections are shown. Scale bar represents 100 μm. (B) Quantitative analysis of biofilm biomass at different conditions of treatment compared with a solvent vehicle control.
Biofilms were cultivated on borosilicate glass coverslips in Petri dishes. P. aeruginosa strains, […], was transformed with plasmid pMMG, which constitutively expresses GFP from the Ptac promoter.[50] The tagged strain was grown at 37 °C, for 16 h, in 2 mL of RPMI-1640 (Lonza, Slough, UK), supplemented with 20 mM D-glucose (Sigma–Aldrich, Dorset, UK) and 2 μM FeCl3 (Sigma–Aldrich, Dorset, UK). Cultures were diluted 1:100 in fresh medium and allowed to grow for a further 4 h, or until an OD600 of 0.5 was reached. The mid logarithmic cultures were diluted to an OD600 of 0.01 in 25 mL of RPMI, supplemented with glucose and FeCl3, and inoculated into Petri dishes containing UV sterilized borosilicate glass coverslips (22 mm × 22 mm, thickness no1) (VWR, Lutterworth, UK). Bacterial cells were seeded at 37 ◦C under static conditions for 1.5 h, and compound 6f was supplemented to the 6f treated samples (6f, 6f + Tob samples) at a concentration of 1 μM before dishes were transferred to a shaker at 60 rpm and 37 ◦C for 16 h to form mature biofilms. Tobramycin and propidium iodide were added to the 16 h old cultures at concentrations of 100 μg/mL and 2 μM, respectively, followed by further incubation for 2 or 6 h. […]

For `CC(C)n1c(NCC(O)COc2ccc(CC#N)cc2)nc2ccc(Cl)cc21` (stereo not drawn) [Compound 6f, 2-(4-(3-((6-Chloro-1-isopropyl-1H-benzo[d]imidazol-2-yl)amino)-2-hydroxypropoxy)phenyl) Acetonitrile], the “biofilm killing, combination with tobramycin” value (6f 1 μM + tobramycin 100 μg/mL, 2 and 6 h of incubation) is reported as “enhanced the killing”. Besides, the “live cells in biofilm, combination with tobramycin” value (6f 1 μM + tobramycin 100 μg/mL, 6 h) is “no live cells present”. Besides, the “viability of preformed biofilms, 6f on its own” value (PAO1-L biofilm, 6f 1 μM) is listed as “did not impact on the viability”.
